Values of other authors, collected in patent US8968725B2, “Genipin cross-linked fibrin gels” (University of Vermont and State Agricultural College, priority 2010, dated 2015).

Tested on: mice
Details: mouse, in vivo, iv

For `COC(=O)C1=CO[C@@H](O)[C@H]2C(CO)=CC[C@H]12` [Genipin, Methyl (1R,2R,6S)-2-hydroxy-9-(hydroxymethyl)-3-oxabicyclo[4.3.0]nona-4,8-diene-5-carboxylate], the LD50 is listed as 382 mg/kg.
